Test results: patent EP2653156A1, “Pharmaceutical emulsion composition and use thereof” (College of Pharmacy of Taif University, priority 2012, dated 2013)

Assay: Particle size distribution of insulin and/or L-arginine solutions by photon correlation spectroscopy (Malvern Zetasizer Nano-ZS)
Assay type: physicochemical
Details: for Median particle size D(i), Stability in form of particle size / Median particle size D(i): by intensity; for Median particle size D(i), Stability in form of particle size / Median particle size D(i) / Median particle size (n, 0.5) D(n), Stability in form of particle size / Median particle size (n, 0.5) D(n): unit nm; for Median particle size (n, 0.5) D(n), Stability in form of particle size / Median particle size (n, 0.5) D(n): by number
Method: Determination of the particle size distribution of Insulin and/or L-arginine by number as D (n, 0.5) and by intensity as D (i, 0.5) using nanosizer
The particle size distribution of two separate solutions of insulin (1 U/ml) prepared using 0.1 M HCl and L-arginine (1 mg/ml) prepared in distilled water was determined. In addition, a mixture of particles prepared by mixing insulin and L-arginine previous solutions in 1:1 v/v ratio was assessed by photon correlation spectroscopy using a Malvern Zetasizer Nano-ZS series (Malvern Instruments, UK). Collective 10 readings were performed three times on a sample at 25 °C with a detection angle of 173°. The median and standard deviations were calculated by the instrument. The viscosity was determined using a Vibro viscometer (SV-10, A&D Company, Japan) at 25°C.

[1] = Table 1 (by number), Room temp for 24 hr
[2] = Table 1 (by number), stability at 50°C for 2 hrs
[3] = Table 1 (by number), stability at 50 °C for 24 hrs
[4] = Table 2 (by intensity), Room temp for 24 hr
[5] = Table 2 (by intensity), stability at 50 °C for 2 hrs
[6] = Table 2 (by intensity), stability at 50°C for 24 hrs

| Compound | Pdl [1] | Pdl [2] | Pdl [3] | Pdl [4] | Pdl [5] | Pdl [6] | Median particle size D(i), Stability in form of particle size (50 °C for 2 hrs) [nm] | Median particle size D(i), Stability in form of particle size (50°C for 24 hrs) [nm] | Median particle size D(i) (Room temp for 24 hr) [nm] | Median particle size (n, 0.5) D(n), Stability in form of particle size (50°C for 2 hrs) [nm] | Median particle size (n, 0.5) D(n), Stability in form of particle size (50 °C for 24 hrs) [nm] | Median particle size (n, 0.5) D(n) (Room temp for 24 hr) [nm] | particle size (in the aqueous solution) |
| --- | --- | --- | --- | --- | --- | --- | --- | --- | --- | --- | --- | --- | --- |
| N=C(N)NCCC[C@H](N)C(=O)O [L-arginine (1 mg/ml), L-arginine] | 0.474 | 0.517 | 0.31 | 0.474 | 0.517 | 0.31 | 115 | 148 | 122 | 102 | 93.8 | 74.8 | 100-150 nm |
| N=C(N)NCCC[C@H](N)C(=O)O [L-arginine (10mg/ml), L-arginine] | 0.442 | 0.522 | 0.436 | 0.442 | 0.522 | 0.436 | 174 | 126 | 129 | 85.8 | 80.6 | 109 | – |
